From PubChem BioAssay (NCI)
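Following 48 hours of exposure in 96-well plates, responses at five concentrations were used to interpolate endpoints linearly. Definition used: TGI = concentration required for complete inhibition of growth.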

What was measured:
Assay in all cases: NCI tumour cell line growth inhibition, 48 h
SF-295 CNS = test system: SF-295 CNS
A498 renal = test system: A498 renal
SK-OV-3 ovarian = test system: SK-OV-3 ovarian
LOX IMVI melanoma = test system: LOX IMVI melanoma
UACC-257 melanoma = test system: UACC-257 melanoma
RXF 393 renal = test system: RXF 393 renal
COLO 205 colon = test system: COLO 205 colon
NCI-H23 lung = test system: NCI-H23 lung
NCI-H226 lung = test system: NCI-H226 lung
KM12 colon = test system: KM12 colon
SF-539 CNS = test system: SF-539 CNS
M19-MEL melanoma = test system: M19-MEL melanoma
HCT-116 colon = test system: HCT-116 colon
KM20L2 colon = test system: KM20L2 colon
DMS 114 small cell lung = test system: DMS 114 small cell lung
CCRF-CEM leukemia = test system: CCRF-CEM leukemia
RPMI-8226 leukemia = test system: RPMI-8226 leukemia
DLD-1 colon = test system: DLD-1 colon
P388/ADR leukemia = test system: P388/ADR leukemia
U251 CNS = test system: U251 CNS
SNB-75 CNS = test system: SNB-75 CNS
XF 498 CNS = test system: XF 498 CNS
SN12C renal = test system: SN12C renal
UO-31 renal = test system: UO-31 renal
HT29 colon = test system: HT29 colon
MCF7 breast = test system: MCF7 breast
DMS 273 small cell lung = test system: DMS 273 small cell lung
OVCAR-4 ovarian = test system: OVCAR-4 ovarian
HCC-2998 colon = test system: HCC-2998 colon
IGROV1 ovarian = test system: IGROV1 ovarian
SF-268 CNS = test system: SF-268 CNS
HL-60(TB) leukemia = test system: HL-60(TB) leukemia
HCT-15 colon = test system: HCT-15 colon
NCI-H522 lung = test system: NCI-H522 lung
HOP-92 NSCLC = test system: HOP-92 NSCLC
MALME-3M melanoma = test system: MALME-3M melanoma
OVCAR-8 ovarian = test system: OVCAR-8 ovarian
A549 NSCLC = test system: A549 NSCLC
SN12K1 renal = test system: SN12K1 renal
OVCAR-3 ovarian = test system: OVCAR-3 ovarian
SK-MEL-5 melanoma = test system: SK-MEL-5 melanoma
SK-MEL-2 melanoma = test system: SK-MEL-2 melanoma
K-562 leukemia = test system: K-562 leukemia
NCI/ADR-RES ovarian = test system: NCI/ADR-RES ovarian
SNB-78 CNS = test system: SNB-78 CNS
MOLT-4 leukemia = test system: MOLT-4 leukemia
EKVX NSCLC = test system: EKVX NSCLC
HOP-62 NSCLC = test system: HOP-62 NSCLC
SK-MEL-28 melanoma = test system: SK-MEL-28 melanoma
UACC-62 melanoma = test system: UACC-62 melanoma
CAKI-1 renal = test system: CAKI-1 renal
SW-620 colon = test system: SW-620 colon
SNB-19 CNS = test system: SNB-19 CNS
HOP-18 NSCLC = test system: HOP-18 NSCLC
OVCAR-5 ovarian = test system: OVCAR-5 ovarian
P388 leukemia = test system: P388 leukemia
NCI-H460 lung = test system: NCI-H460 lung
TK-10 renal = test system: TK-10 renal
ACHN renal = test system: ACHN renal
RXF-631 renal = test system: RXF-631 renal
LXFL 529 NSCLC = test system: LXFL 529 NSCLC
786-0 renal = test system: 786-0 renal
M14 melanoma = test system: M14 melanoma
SR leukemia = test system: SR leukemia

SMILES: CC(=O)OC1CCC2(C)C3CCC4(C)C(c5ccc(=O)oc5)CC5OC54C3CCC2(O)C1 (stereo not given)
- TGI (SF-295 CNS): 5.63 µM
- TGI (A498 renal): 15.1 µM
- TGI (SK-OV-3 ovarian): 10.2 µM
- TGI (LOX IMVI melanoma): 16.5 µM
- TGI (UACC-257 melanoma): 19.5 µM
- TGI (RXF 393 renal): 1.61 µM
- TGI (COLO 205 colon): 10.3 µM
- TGI (NCI-H23 lung): 2.98 µM
- TGI (NCI-H226 lung): 25.1 µM
- TGI (KM12 colon): 10.7 µM
- TGI (SF-539 CNS): 2.78 µM
- TGI (M19-MEL melanoma): 11.8 µM
- TGI (HCT-116 colon): 4.61 µM
- TGI (KM20L2 colon): 13.2 µM
- TGI (DMS 114 small cell lung): 0.69 µM
- TGI (CCRF-CEM leukemia): 2.7 µM
- TGI (RPMI-8226 leukemia): 14.1 µM
- TGI (DLD-1 colon): 1.57 µM
- TGI (P388/ADR leukemia): > 200 µM
- TGI (U251 CNS): 9.14 µM
- TGI (SNB-75 CNS): 5.77 µM
- TGI (XF 498 CNS): 6.97 µM
- TGI (SN12C renal): 34.2 µM
- TGI (UO-31 renal): 9.38 µM
- TGI (HT29 colon): 16.1 µM
- TGI (MCF7 breast): 14.8 µM
- TGI (DMS 273 small cell lung): 6 µM
- TGI (OVCAR-4 ovarian): 5.61 µM
- TGI (HCC-2998 colon): 14 µM
- TGI (IGROV1 ovarian): 21 µM
- TGI (SF-268 CNS): 2.57 µM
- TGI (HL-60(TB) leukemia): 1.48 µM
- TGI (HCT-15 colon): 14.6 µM
- TGI (NCI-H522 lung): 2.04 µM
- TGI (HOP-92 NSCLC): 7.59 µM
- TGI (MALME-3M melanoma): 3.21 µM
- TGI (OVCAR-8 ovarian): 7.73 µM
- TGI (A549 NSCLC): 2.15 µM
- TGI (SN12K1 renal): 3.7 µM
- TGI (OVCAR-3 ovarian): 2.29 µM
- TGI (SK-MEL-5 melanoma): 4.76 µM
- TGI (SK-MEL-2 melanoma): 13 µM
- TGI (K-562 leukemia): 24 µM
- TGI (NCI/ADR-RES ovarian): 6.99 µM
- TGI (SNB-78 CNS): 12 µM
- TGI (MOLT-4 leukemia): 0.934 µM
- TGI (EKVX NSCLC): 3.64 µM
- TGI (HOP-62 NSCLC): 3.41 µM
- TGI (SK-MEL-28 melanoma): 21.7 µM
- TGI (UACC-62 melanoma): 6.95 µM
- TGI (CAKI-1 renal): 2.23 µM
- TGI (SW-620 colon): 4.04 µM
- TGI (SNB-19 CNS): 31.8 µM
- TGI (HOP-18 NSCLC): 7.38 µM
- TGI (OVCAR-5 ovarian): 22.4 µM
- TGI (P388 leukemia): > 200 µM
- TGI (NCI-H460 lung): 1.75 µM

SMILES: CCOP(=O)(Cc1ccc(CP(=O)(OCC)OCC)n1C)OCC
- TGI (TK-10 renal): > 100 µM
- TGI (SF-295 CNS): > 100 µM
- TGI (SK-OV-3 ovarian): > 100 µM
- TGI (ACHN renal): > 100 µM
- TGI (LOX IMVI melanoma): > 100 µM
- TGI (UACC-257 melanoma): > 100 µM
- TGI (RXF 393 renal): > 100 µM
- TGI (RXF-631 renal): > 100 µM
- TGI (COLO 205 colon): > 100 µM
- TGI (NCI-H23 lung): > 100 µM
- TGI (KM12 colon): > 100 µM
- TGI (SF-539 CNS): > 100 µM
- TGI (M19-MEL melanoma): > 100 µM
- TGI (LXFL 529 NSCLC): > 100 µM
- TGI (KM20L2 colon): > 100 µM
- TGI (DMS 114 small cell lung): > 100 µM
- TGI (CCRF-CEM leukemia): > 100 µM
- TGI (RPMI-8226 leukemia): > 100 µM
- TGI (DLD-1 colon): > 100 µM
- TGI (U251 CNS): > 100 µM
- TGI (SNB-75 CNS): > 100 µM
- TGI (SN12C renal): > 100 µM
- TGI (UO-31 renal): > 100 µM
- TGI (786-0 renal): > 100 µM
- TGI (HT29 colon): > 100 µM
- TGI (DMS 273 small cell lung): > 100 µM
- TGI (OVCAR-4 ovarian): > 100 µM
- TGI (HCC-2998 colon): > 100 µM
- TGI (IGROV1 ovarian): > 100 µM
- TGI (SF-268 CNS): > 100 µM
- TGI (HL-60(TB) leukemia): > 100 µM
- TGI (HCT-15 colon): > 100 µM
- TGI (NCI-H522 lung): > 100 µM
- TGI (HOP-92 NSCLC): > 100 µM
- TGI (MALME-3M melanoma): > 100 µM
- TGI (OVCAR-8 ovarian): > 100 µM
- TGI (A549 NSCLC): > 100 µM
- TGI (OVCAR-3 ovarian): > 100 µM
- TGI (SK-MEL-5 melanoma): > 100 µM
- TGI (SK-MEL-2 melanoma): > 100 µM
- TGI (K-562 leukemia): > 100 µM
- TGI (MOLT-4 leukemia): > 100 µM
- TGI (EKVX NSCLC): > 100 µM
- TGI (HOP-62 NSCLC): > 100 µM
- TGI (SK-MEL-28 melanoma): > 100 µM
- TGI (UACC-62 melanoma): > 100 µM
- TGI (CAKI-1 renal): > 100 µM
- TGI (SW-620 colon): > 100 µM
- TGI (M14 melanoma): > 100 µM
- TGI (SNB-19 CNS): > 100 µM
- TGI (HOP-18 NSCLC): > 100 µM
- TGI (OVCAR-5 ovarian): > 100 µM
- TGI (NCI-H460 lung): > 100 µM

SMILES: CNC(=S)NC1CCCCC1NC(=S)NC (stereo not given)
- TGI (SF-295 CNS): > 100 µM
- TGI (SK-OV-3 ovarian): > 100 µM
- TGI (ACHN renal): > 100 µM
- TGI (LOX IMVI melanoma): > 100 µM
- TGI (RXF-631 renal): > 100 µM
- TGI (COLO 205 colon): > 100 µM
- TGI (NCI-H23 lung): > 100 µM
- TGI (NCI-H226 lung): > 100 µM
- TGI (KM12 colon): > 100 µM
- TGI (SF-539 CNS): > 100 µM
- TGI (M19-MEL melanoma): > 100 µM
- TGI (HCT-116 colon): > 100 µM
- TGI (LXFL 529 NSCLC): > 100 µM
- TGI (KM20L2 colon): > 100 µM
- TGI (DMS 114 small cell lung): > 100 µM
- TGI (CCRF-CEM leukemia): > 100 µM
- TGI (RPMI-8226 leukemia): > 100 µM
- TGI (DLD-1 colon): > 100 µM
- TGI (U251 CNS): > 100 µM
- TGI (SNB-75 CNS): > 100 µM
- TGI (XF 498 CNS): > 100 µM
- TGI (SN12C renal): > 100 µM
- TGI (UO-31 renal): > 100 µM
- TGI (786-0 renal): > 100 µM
- TGI (HT29 colon): > 100 µM
- TGI (SR leukemia): > 100 µM
- TGI (DMS 273 small cell lung): > 100 µM
- TGI (OVCAR-4 ovarian): > 100 µM
- TGI (HCC-2998 colon): > 100 µM
- TGI (IGROV1 ovarian): > 100 µM
- TGI (SF-268 CNS): > 100 µM
- TGI (HL-60(TB) leukemia): > 100 µM
- TGI (HCT-15 colon): > 100 µM
- TGI (NCI-H522 lung): > 100 µM
- TGI (HOP-92 NSCLC): > 100 µM
- TGI (MALME-3M melanoma): > 100 µM
- TGI (OVCAR-8 ovarian): > 100 µM
- TGI (A549 NSCLC): > 100 µM
- TGI (OVCAR-3 ovarian): > 100 µM
- TGI (SK-MEL-5 melanoma): > 100 µM
- TGI (SK-MEL-2 melanoma): > 100 µM
- TGI (K-562 leukemia): > 100 µM
- TGI (SNB-78 CNS): > 100 µM
- TGI (MOLT-4 leukemia): > 100 µM
- TGI (EKVX NSCLC): > 100 µM
- TGI (HOP-62 NSCLC): > 100 µM
- TGI (SK-MEL-28 melanoma): > 100 µM
- TGI (UACC-62 melanoma): > 100 µM
- TGI (CAKI-1 renal): > 100 µM
- TGI (SW-620 colon): > 100 µM
- TGI (M14 melanoma): > 100 µM
- TGI (SNB-19 CNS): > 100 µM
- TGI (HOP-18 NSCLC): > 100 µM
- TGI (OVCAR-5 ovarian): > 100 µM
- TGI (NCI-H460 lung): > 100 µM
